This is an account of results in ChEMBL document CHEMBL6127087 (Eur J Med Chem, 2024).

Active and inactive are the calls of the source. The calls are words filed in the database; no cut-off is given here. Some results are limits rather than exact numbers.

Data set [1] has as its target P2Y purinoceptor 6 (Homo sapiens, UniProt Q15077). In words: Antagonist activity at human P2Y6R expressed in CHO cells assessed as inhibition of UDP sodium salt-induced Ca2+ level by FLIPR calcium 6 assay. Format: functional, cell-based.
Data set [2] deals with P2Y purinoceptor 12 (Homo sapiens, UniProt Q9H244). Description: Antagonist activity at human P2Y12R stably expressed in HEK293 cells assessed as inhibition of MeSADP-induced cAMP accumulation preincubated with compound for 30 mins followed by MeSADP addition by cAMP-GloTM assay. It counts as functional, cell-based.
The target of data set [3] is T1, P2Y purinoceptor 14 (Homo sapiens) (UniProt Q15391).
T1 sequence (whole entry): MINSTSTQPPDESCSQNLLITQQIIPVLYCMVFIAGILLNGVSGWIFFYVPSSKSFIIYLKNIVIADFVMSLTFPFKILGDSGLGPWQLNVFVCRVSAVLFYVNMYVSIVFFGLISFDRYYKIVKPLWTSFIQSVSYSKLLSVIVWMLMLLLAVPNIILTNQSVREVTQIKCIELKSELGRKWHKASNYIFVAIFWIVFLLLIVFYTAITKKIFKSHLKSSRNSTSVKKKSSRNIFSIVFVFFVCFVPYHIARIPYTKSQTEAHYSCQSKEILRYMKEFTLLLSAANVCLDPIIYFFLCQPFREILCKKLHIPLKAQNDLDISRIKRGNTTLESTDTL
In words: Antagonist activity at human P2Y14R stably expressed in HEK293 cells assessed as inhibition of UDPG-induced cAMP accumulation preincubated with compound for 30 mins followed by UDPG addition by cAMP-GloTM assay. Format: functional, cell-based.

Data set [4] deals with Cytochrome P450 2C19 (Homo sapiens, UniProt P33261). Description: Inhibition of CYP2C19 in human liver microsomes using s-mephenytoin as substrate preincubated for 10 mins followed by NADPH addition and measured after 10 mins by LC-MS/MS analysis. It counts as ADME, Microsome.
The target of data set [5] is Cytochrome P450 2D6 (Homo sapiens, UniProt P10635). Description: Inhibition of CYP2D6 in human liver microsomes using […] as substrate preincubated for 10 mins followed by NADPH addition and measured after 10 mins by LC-MS/MS analysis. It counts as ADME, Microsome.
The nature of data set [6]: Tmax in male Sprague-Dawley rat at 20 mg/kg, po measured after 24 hrs by LC-MS/MS analysis. Format: ADME, organism-based. Particulars: male, Sprague-Dawley, in vivo, read-out: Tmax (converted).
The nature of data set [7]: Oral bioavailability in male Sprague-Dawley rat at 20 mg/kg measured after 24 hrs by LC-MS/MS analysis. Format: ADME, organism-based. Particulars: male, Sprague-Dawley, in vivo.
The test system of data set [8] is Mus musculus. In words: Anti-inflammatory activity in LPS-induced male C57BL/6 mouse model of acute […] injury assessed as reduction in IL-6 level in BALF at 2 to 6 mg/kg, IG preadministered with compound for 7 days followed by LPS administration and measured after 24 hrs by ELISA. Format: functional, organism-based. Particulars: dose 2-6 mg/kg, time 8.0 day.

Data set [9] relates to Mus musculus. Description: Anti-inflammatory activity in LPS-induced male C57BL/6 mouse model of acute […] injury assessed as reduction in TNF-alpha level in BALF at 2 to 6 mg/kg, IG preadministered with compound for 7 days followed by LPS administration and measured after 24 hrs by ELISA. It counts as functional, organism-based. Particulars: dose 2-6 mg/kg, time 8.0 day.

Data set [10] relates to Mus musculus. Description: Anti-inflammatory activity in LPS-induced male C57BL/6 mouse model of acute […] injury assessed as reduction in infiltration of immune cells by measuring decrease in WBC count at 2 to 6 mg/kg, IG preadministered with compound for 7 days followed by LPS administration and measured after 24 hrs. Format: functional, organism-based. Particulars: dose 2-6 mg/kg, time 8.0 day.

Data set [11] relates to Mus musculus. In words: Anti-inflammatory activity in LPS-induced male C57BL/6 mouse model of acute […] injury assessed as reduction in infiltration of immune cells by measuring decrease in neutrophil count at 2 to 6 mg/kg, IG preadministered with compound for 7 days followed by LPS administration and measured after 24 hrs. It counts as functional, organism-based. Particulars: dose 2-6 mg/kg, time 8.0 day.

The test system of data set [12] is Mus musculus. Description: Anti-inflammatory activity in LPS-induced male C57BL/6 mouse model of acute […] injury assessed as reduction in infiltration of immune cells by measuring decrease in lymphocytes count at 2 to 6 mg/kg, IG preadministered with compound for 7 days followed by LPS administration and measured after 24 hrs. Format: functional, organism-based. Particulars: dose 2-6 mg/kg, time 8.0 day.

Data set [13] relates to Mus musculus. Description: Anti-inflammatory activity in LPS-induced male C57BL/6 mouse model of acute […] injury assessed as reduction in neutrophil elastase level in BALF at 2 to 6 mg/kg, IG preadministered with compound for 7 days followed by LPS administration and measured after 24 hrs by ELISA. Format: functional, organism-based. Particulars: dose 2-6 mg/kg, time 8.0 day.

The test system of data set [14] is Mus musculus. Description: Anti-inflammatory activity in LPS-induced male C57BL/6 mouse model of acute […] injury assessed as reduction in alveolar septa thickening in lung at 2 to 6 mg/kg, IG preadministered with compound for 7 days followed by LPS administration and measured after 24 hrs by H and E staining based histopathological analysis. Format: functional, organism-based. Particulars: dose 2-6 mg/kg, time 8.0 day.

Data set [15] relates to Mus musculus. In words: Anti-inflammatory activity in LPS-induced male C57BL/6 mouse model of acute […] injury assessed as reduction in inflammatory infiltration in lung at 2 to 6 mg/kg, IG preadministered with compound for 7 days followed by LPS administration and measured after 24 hrs by H and E staining based histopathological analysis. Format: functional, organism-based. Particulars: dose 2-6 mg/kg, time 8.0 day.

Data set [16] relates to Mus musculus. In words: Anti-inflammatory activity in LPS-induced male C57BL/6 mouse model of acute […] injury assessed as inhibition of CXCL1 mRNA expression at 2 to 6 mg/kg, IG preadministered with compound for 7 days followed by LPS administration and measured after 24 hrs by RT-PCR analysis. It counts as functional, organism-based. Particulars: dose 2-6 mg/kg, time 8.0 day.

Data set [17] relates to Mus musculus. In words: Anti-inflammatory activity in LPS-induced male C57BL/6 mouse model of acute […] injury assessed as inhibition of CXCL9 mRNA expression at 2 to 6 mg/kg, IG preadministered with compound for 7 days followed by LPS administration and measured after 24 hrs by RT-PCR analysis. It counts as functional, organism-based. Particulars: dose 2-6 mg/kg, time 8.0 day.

Data set [18] concerns Mus musculus. In words: Anti-inflammatory activity in LPS-induced male C57BL/6 mouse model of acute […] injury assessed as inhibition of CXCL1 release at 2 to 6 mg/kg, IG preadministered with compound for 7 days followed by LPS administration and measured after 24 hrs by ELISA. Format: functional, organism-based. Particulars: dose 2-6 mg/kg, time 8.0 day.
The test system of data set [19] is Mus musculus. In words: In vivo inhibition of NLRP3 activation in LPS-induced male C57BL/6 mouse model of acute […] injury assessed as reduction in NLRP3 level in lung at 2 to 6 mg/kg, IG preadministered with compound for 7 days followed by LPS administration and measured after 24 hrs by Western blot analysis. Particulars: dose 2-6 mg/kg, time 8.0 day. It counts as functional, organism-based.

Sequence of P2Y purinoceptor 12 (Q9H244 whole entry): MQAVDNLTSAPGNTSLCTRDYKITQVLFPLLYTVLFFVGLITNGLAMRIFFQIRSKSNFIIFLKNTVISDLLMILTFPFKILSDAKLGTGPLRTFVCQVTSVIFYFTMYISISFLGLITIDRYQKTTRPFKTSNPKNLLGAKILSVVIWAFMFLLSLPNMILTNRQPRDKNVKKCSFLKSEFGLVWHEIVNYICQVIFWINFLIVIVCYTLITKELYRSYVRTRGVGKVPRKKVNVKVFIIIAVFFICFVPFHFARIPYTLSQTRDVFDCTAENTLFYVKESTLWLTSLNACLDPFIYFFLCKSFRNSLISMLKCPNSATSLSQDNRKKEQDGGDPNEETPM
Sequence of Cytochrome P450 2D6 (P10635 whole entry): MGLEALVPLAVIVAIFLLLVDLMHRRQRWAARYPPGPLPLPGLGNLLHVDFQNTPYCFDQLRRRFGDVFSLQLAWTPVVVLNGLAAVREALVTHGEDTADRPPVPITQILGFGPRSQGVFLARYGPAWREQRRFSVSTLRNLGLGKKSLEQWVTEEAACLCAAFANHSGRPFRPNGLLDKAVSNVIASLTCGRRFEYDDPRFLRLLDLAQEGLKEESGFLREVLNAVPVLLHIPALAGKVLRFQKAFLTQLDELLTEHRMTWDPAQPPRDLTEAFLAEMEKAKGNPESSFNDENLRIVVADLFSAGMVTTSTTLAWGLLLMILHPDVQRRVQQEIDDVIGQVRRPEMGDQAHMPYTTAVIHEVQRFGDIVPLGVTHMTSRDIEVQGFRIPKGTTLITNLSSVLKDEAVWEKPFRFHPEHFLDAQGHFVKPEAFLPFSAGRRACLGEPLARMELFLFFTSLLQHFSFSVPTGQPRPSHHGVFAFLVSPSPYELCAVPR
Sequence of P2Y purinoceptor 6 (Q15077 whole entry): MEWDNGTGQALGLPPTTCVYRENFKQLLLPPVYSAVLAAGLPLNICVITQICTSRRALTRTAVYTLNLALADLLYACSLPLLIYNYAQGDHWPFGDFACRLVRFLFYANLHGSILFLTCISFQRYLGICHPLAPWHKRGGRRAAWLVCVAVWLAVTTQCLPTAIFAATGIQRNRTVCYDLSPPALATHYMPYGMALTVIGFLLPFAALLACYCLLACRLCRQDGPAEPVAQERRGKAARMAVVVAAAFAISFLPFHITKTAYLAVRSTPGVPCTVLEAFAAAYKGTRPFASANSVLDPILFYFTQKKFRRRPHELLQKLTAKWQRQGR
Sequence of Cytochrome P450 2C19 (P33261 whole entry): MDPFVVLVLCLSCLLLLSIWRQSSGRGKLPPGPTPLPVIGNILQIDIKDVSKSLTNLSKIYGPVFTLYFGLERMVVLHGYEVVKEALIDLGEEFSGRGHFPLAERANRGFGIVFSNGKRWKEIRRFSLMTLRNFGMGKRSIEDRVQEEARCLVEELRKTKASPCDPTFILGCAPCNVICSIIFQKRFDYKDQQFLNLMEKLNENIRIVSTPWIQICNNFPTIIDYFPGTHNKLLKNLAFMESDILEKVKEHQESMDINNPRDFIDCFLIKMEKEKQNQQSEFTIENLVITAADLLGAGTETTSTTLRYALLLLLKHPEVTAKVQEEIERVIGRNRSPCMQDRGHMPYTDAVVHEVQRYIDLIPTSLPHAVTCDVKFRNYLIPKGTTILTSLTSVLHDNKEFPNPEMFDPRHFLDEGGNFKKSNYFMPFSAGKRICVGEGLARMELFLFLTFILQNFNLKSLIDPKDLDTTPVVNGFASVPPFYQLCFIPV

For `O=C(O)CCC(=O)N1N=C(c2ccc[nH]2)CC1c1cnc2ccccc2c1` (centres undefined), the IC50 in data set [1] is 0.0196 µM; in data set [4], more than 50 µM; in data set [5], more than 50 µM. For the same compound, the result in data set [2] and in [3] was inactive. Moreover, the Tmax in data set [6] is 46 min. In data set [7], this compound returned a bioavailability of 43%. Also, the outcome in [8], in data set [9], in data set [10], in data set [11], in [12] and in data set [13] was Active. Besides, the outcome in data set [14], in data set [15], in data set [16], in data set [17] and in data set [18] was Active. Also, the inhibition result in [19] is “Active”.
